Patent US8617555B2, “Pharmaceutical compositions comprising activated-potentiated antibodies to human insulin receptor and endothelial nitric oxide (NO) synthase” (priority 2010, dated 2013)

What was measured:
[1] = tested on: rats with streptozotocin-induced diabetes mellitus; experiment: Fasting blood plasma glucose level in rats with streptozotocin-induced diabetes mellitus; type: in vivo, Wistar rats; conditions: STZ rats
Protocol: In the study, 150 male Wistar were used (weight at beginning of study 250-300 g, age 3.5-4 months). 10 rats were intact. The rest were intravenously injected with streptozotocin at the dose of 50 mg/kg (experimental model of diabetes mellitus). […] Intact rats received distilled water in the same volume. On days 7, 14 and 21 of injection of preparations in rats, fasting blood plasma glucose level measured with enzymatic method (glucose oxidase method) with utilization of “glucose FKD” kits (Russia).

[2] = tested on: rats with streptozotocin-induced diabetes mellitus; experiment: Oral glucose tolerance test (OGTT) on day 14 in rats with streptozotocin-induced diabetes mellitus; type: in vivo, Wistar rats; conditions: STZ rats; day 14 of injection; glucose 1 g/kg per os; administered alone
Protocol: The rats were starving at water for 18 hours. 60 min before the test they were last given test substances. Intact rats received distilled water in the same volume. Glucose was administered per os 50% w/w water glucose solution (1 g/kg of rat weight). Serum glucose of blood sample from tail vein was measured by using “Glucose FKD” kit (OOO “Pharamaceutical and clinical diagnostics, Russia) at 0, 30, 60, 90, 120 min. Mean area under the curve (AUC) concentration of blood glucose over time was calculated.

| Compound | decrease in glucose level versus control ([1]; day 14 of the experiment, p<0.05 versus control) | effect on blood plasma glucose level (in words) ([1]; all observation periods, 1/2 of the effective dose, glucose measured 1 hour after injection) | glucose tolerance, area under concentration-time curve (AUC) in OGTT (in words) [2] |
| --- | --- | --- | --- |
| CN(CCOc1ccc(CC2SC(=O)NC2=O)cc1)c1ccccn1 (stereo not drawn) [Rosiglitazone] | 36% | – | – |
| insulin: short-acting insulin, 8 units/kg/day subcutaneously, 1/2 of the effective dose | – | down to the level of the intact control | most effectively increased glucose tolerance |
